Tests used:
human IRAK4 = target: T1, human IRAK4 (Homo sapiens, UniProt Q9NWZ3); assay: Human IRAK4 kinase activity inhibition assay (IRAK4 TR-FRET assay); type: biochemical; details: 1 mM ATP, GST-human IRAK4, average or median values
T1 construct: GST (N); made in house; host or cells: baculovirus-infected Hi5 (BTI-TN-5B1-4) insect cells
T1 sequence (Q9NWZ3 1-460): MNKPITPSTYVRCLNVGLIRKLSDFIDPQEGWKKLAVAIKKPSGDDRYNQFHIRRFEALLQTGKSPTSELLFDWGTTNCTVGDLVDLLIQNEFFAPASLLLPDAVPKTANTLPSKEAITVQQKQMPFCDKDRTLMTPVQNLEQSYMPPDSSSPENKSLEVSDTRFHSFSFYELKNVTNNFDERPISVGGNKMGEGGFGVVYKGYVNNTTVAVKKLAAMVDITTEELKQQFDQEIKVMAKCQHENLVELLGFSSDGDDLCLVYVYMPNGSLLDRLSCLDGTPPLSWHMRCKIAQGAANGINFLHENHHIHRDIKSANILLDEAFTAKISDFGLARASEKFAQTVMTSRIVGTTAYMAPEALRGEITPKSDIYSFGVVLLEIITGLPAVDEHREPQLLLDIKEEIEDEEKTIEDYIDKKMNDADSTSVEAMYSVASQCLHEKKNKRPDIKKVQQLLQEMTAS
In short: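 GST-IRAK4 from insect cells (about 0.2 nM, linear range) was preincubated 15 min with compound (11 concentrations, 20 µM–0.073 nM) in HEPES pH 7.5 with MgCl2 and DTT before kinase reaction on a biotinylated peptide. Phosphopeptide was detected by TR-FRET (Eu anti-mouse-IgG/anti-phosphoserine/streptavidin-XL665, 1 h at 22°C) as the 665/620 nm ratio, normalized to no-compound and no-enzyme controls.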

[1] = Metabolic stability in human liver microsomes; details: 1 µM compound; for CLblood, human microsomes: hepatic in vivo blood clearance calculated with well stirred liver model, '(stable)' given beside < 0.01; for Fmax, human microsomes: maximal oral bioavailability calculated with well stirred liver model, 0.5 mg/mL protein, '(stable)' given beside 100

IC50 (human IRAK4) | CLblood, human microsomes [1] | Fmax, human microsomes [1] | Compound
3.46 nM | < 0.01 (stable) L/h/kg | 100 (stable) % | O=C1C[C@H](Nc2nc(N3CC(N4CCOCC4)C3)c3cnn(-c4cccc(C(F)F)c4)c3n2)CN1 [II-1, (4S)-4-({1-[3-(difluoromethyl)phenyl]-4-[3-(morpholin-4-yl)azetidin-1-yl]-1H-pyrazolo[3,4-d]pyrimidin-6-yl}amino)pyrrolidin-2-one]
5.37 nM | < 0.01 (stable) L/h/kg | 100 (stable) % | CC(C)(O)CC1CN(c2nc(NC3CCS(=O)(=O)CC3)nc3c2cnn3-c2cccc(C(F)F)c2)C1 [II-7, 1-(1-{1-[3-(difluoromethyl)phenyl]-6-[(1,1-dioxidotetrahydro-2H-thiopyran-4-yl)amino]-1H-pyrazolo[3,4-d]pyrimidin-4-yl}azetidin-3-yl)-2-methylpropan-2-ol]
2.01 nM | < 0.01 (stable) L/h/kg | 100 (stable) % | CS(=O)(=O)[C@H]1C[C@H](Nc2nc(N3CC(N4CCOCC4)C3)c3cnn(-c4cccc(C(F)F)c4)c3n2)C1 [II-8, 1-[3-(difluoromethyl)phenyl]-N-[trans-3-(methylsulfonyl)cyclobutyl]-4-[3-(morpholin-4-yl)azetidin-1-yl]-1H-pyrazolo[3,4-d]pyrimidin-6-amine]
4.31 nM | 0.42 L/h/kg | 68% | O=C(CC1CN(c2nc(NC3CCS(=O)(=O)CC3)nc3c2cnn3-c2cccc(C(F)F)c2)C1)N1CCOCC1 [II-10, 2-(1-{1-[3-(difluoromethyl)phenyl]-6-[(1,1-dioxidotetrahydro-2H-thiopyran-4-yl)amino]-1H-pyrazolo[3,4-d]pyrimidin-4-yl}azetidin-3-yl)-1-(morpholin-4-yl)ethanone]
2.67 nM | 0.25 L/h/kg | 81% | CC(C)(O)C1CCN(c2nc(N[C@H]3C[C@H](S(C)(=O)=O)C3)nc3c2cnn3-c2cccc(C(F)F)c2)CC1 [II-11, 2-[1-(1-[3-(difluoromethyl)phenyl]-6-{[trans-3-(methylsulfonyl)cyclobutyl]amino}-1H-pyrazolo[3,4-d]pyrimidin-4-yl)piperidin-4-yl]propan-2-ol]
7.01 nM | < 0.01 (stable) L/h/kg | 100 (stable) % | CC(C)(O)CC1CN(c2nc(NC3CN(S(C)(=O)=O)C3)nc3c2cnn3-c2cccc(C(F)F)c2)C1 [II-14, 1-[1-(1-[3-(difluoromethyl)phenyl]-6-{[1-(methylsulfonyl)azetidin-3-yl]amino}-1H-pyrazolo[3,4-d]pyrimidin-4-yl)azetidin-3-yl]-2-methylpropan-2-ol]
1.63 nM | 0.23 L/h/kg | 82% | CC(C)(O)CC1CN(c2nc(N[C@H]3C[C@H](S(C)(=O)=O)C3)nc3c2cnn3-c2cccc(C(F)F)c2)C1 [II-19, 1-[1-(1-[3-(difluoromethyl)phenyl]-6-{[trans-3-(methylsulfonyl)cyclobutyl]amino}-1H-pyrazolo[3,4-d]pyrimidin-4-yl)azetidin-3-yl]-2-methylpropan-2-ol]
1.39 nM | 0.04 L/h/kg | 97% | CS(=O)(=O)N1CC(Nc2nc(N3CCC(C4(N)CC4)CC3)c3cnn(-c4cccc(C(F)F)c4)c3n2)C1 [II-20, 4-[4-(1-aminocyclopropyl)piperidin-1-yl]-1-[3-(difluoromethyl)phenyl]-N-[1-(methylsulfonyl)azetidin-3-yl]-1H-pyrazolo[3,4-d]pyrimidin-6-amine]
1.8 nM | 0.07 L/h/kg | 95% | CC1(N2CCOCC2)CN(c2nc(N[C@H]3C[C@H](S(C)(=O)=O)C3)nc3c2cnn3-c2cccc(C(F)F)c2)C1 [II-21, 1-[3-(difluoromethyl)phenyl]-4-[3-methyl-3-(morpholin-4-yl)azetidin-1-yl]-N-[trans-3-(methylsulfonyl)cyclobutyl]-1H-pyrazolo[3,4-d]pyrimidin-6-amine]

Further lines, the compound ahead of its results:

Compound | IC50 (human IRAK4) | CLblood, human microsomes [1] | Fmax, human microsomes [1]
C[C@]1(O)C[C@H](Nc2nc(N3C[C@@H](O)[C@H](O)C3)c3cnn(-c4cccc(C(F)(F)F)c4)c3n2)C1 [Example I-108, (3R,4R)-1-(6-{[(1r,3R)-3-hydroxy-3-methylcyclobutyl]amino}-1-[3-(trifluoromethyl)-phenyl]-1H-pyrazolo[3,4-d]pyrimidin-4-yl)pyrrolidine-3,4-diol] | 3.72 nM | 0.16 L/h/kg | 88%
CC1(O)CCN(C2CN(c3nc(N[C@H]4C[C@@H](O)C4)nc4c3cnn4-c3cccc(C(F)(F)F)c3)C2)CC1 [Example I-109, 1-(1-{6-[(cis-3-hydroxycyclobutyl)amino]-1-[3-(trifluoromethyl)phenyl]-1H-pyrazolo[3,4-d]pyrimidin-4-yl}azetidin-3-yl)-4-methylpiperidin-4-ol] | 10.6 nM | 0.33 L/h/kg | 75%
CC1(O)CCN(C2CN(c3nc(N[C@H]4C[C@@](C)(O)C4)nc4c3cnn4-c3cccc(C(F)(F)F)c3)C2)CC1 [Example I-111, 1-(1-{6-[(cis-3-hydroxy-3-methylcyclobutyl)amino]-1-[3-(trifluoromethyl)phenyl]-1H-pyrazolo[3,4-d]pyrimidin-4-yl}azetidin-3-yl)-4-methylpiperidin-4-ol] | 11.1 nM | 0.13 L/h/kg | 90%
O=C1CCCN1C1CN(c2nc(N[C@H]3C[C@@H](O)C3)nc3c2cnn3-c2cccc(C(F)(F)F)c2)C1 [Example I-112, 1-(1-{6-[(cis-3-hydroxycyclobutyl)amino]-1-[3-(trifluoromethyl)phenyl]-1H-pyrazolo[3,4-d]pyrimidin-4-yl}azetidin-3-yl)pyrrolidin-2-one] | 3.24 nM | 0.39 L/h/kg | 71%
O=C1CCCN1C1CN(c2nc(N[C@H]3C[C@H](O)C3)nc3c2cnn3-c2cccc(C(F)(F)F)c2)C1 [Example I-113, 1-(1-{6-[(trans-3-hydroxycyclobutyl)amino]-1-[3-(trifluoromethyl)phenyl]-1H-pyrazolo-[3,4-d]pyrimidin-4-yl}azetidin-3-yl)pyrrolidin-2-one] | 3.6 nM | 0.03 L/h/kg | 98%
OC1(CN2CCCC2)CCN(c2nc(N[C@H]3C[C@@H](O)C3)nc3c2cnn3-c2cccc(C(F)(F)F)c2)CC1 [Example I-114, 1-{6-[(cis-3-hydroxycyclobutyl)amino]-1-[3-(trifluoromethyl)phenyl]-1H-pyrazolo[3,4-d]pyrimidin-4-yl}-4-(pyrrolidin-1-ylmethyl)piperidin-4-ol] | 8.49 nM | 0.21 L/h/kg | 84%
O=C1CN(C2CN(c3nc(N[C@H]4C[C@@H](O)C4)nc4c3cnn4-c3cccc(C(F)(F)F)c3)C2)CCN1 [Example I-115, 4-(1-{6-[(cis-3-hydroxycyclobutyl)amino]-1-[3-(trifluoromethyl)phenyl]-1H-pyrazolo[3,4-d]pyrimidin-4-yl}azetidin-3-yl)piperazin-2-one] | 7.51 nM | < 0.01 (stable) L/h/kg | 100 (stable) %
CS(=O)(=O)[C@H]1C[C@H](Nc2nc(N3C[C@H](O)[C@@H](F)C3)c3cnn(-c4cccc(C(F)F)c4)c3n2)C1 [II-16-2, (3S,4S)-1-(1-[3-(difluoromethyl)phenyl]-6-{[trans-3-(methanesulfonyl)cyclobutyl]amino}-1H-pyrazolo[3,4-d]pyrimidin-4-yl)-4-fluoropyrrolidin-3-ol] | 2.82 nM | < 0.01 (stable) L/h/kg | 100 (stable) %
CS(=O)(=O)[C@H]1C[C@H](Nc2nc(N3C[C@@H](O)[C@H](F)C3)c3cnn(-c4cccc(C(F)F)c4)c3n2)C1 [II-16-3, (3R,4R)-1-(1-[3-(difluoromethyl)phenyl]-6-{[trans-3-(methanesulfonyl)cyclobutyl]-amino)-1H-pyrazolo[3,4-d]pyrimidin-4-yl)-4-fluoropyrrolidin-3-ol] | 1.62 nM | 0.08 L/h/kg | 94%
CC(C)(O)C1CCN(c2nc(N[C@H]3C[C@@]4(CCN4)C3)nc3c2cnn3-c2cccc(C(F)F)c2)CC1 [II-18, 2-(1-{6-[(4r,6s)-1-azaspiro[3.3]heptan-6-ylamino]-1-[3-(difluoromethyl)phenyl]-1H-pyrazolo[3,4-d]pyrimidin-4-yl}piperidin-4-yl)propan-2-ol] | 1.4 nM | 0.10 L/h/kg | 93%
